Assay: Solubility in water or squalane by visual observation
Assay type: physicochemical
Set-up: key: ∘: Completely dissolved; x: Separated or precipitated without dissolution
Details: 25° C.
Experimental: Solubilityies of 1% by weight of components (1) to (5), and those of 0.01% by weight of components (6) and (7) were examined by visual observation of the dissolving states of the components mixed at 25° C. with water or squalane.

Solubility in Squalane (0.01% by weight)	Solubility in Water (0.01% by weight)	Solubility in Squalane (1% by weight)	Solubility in Water (1% by weight)	Compound
x	∘			CCN(Cc1cccc(S(=O)(=O)[O-])c1)c1ccc(C(=C2C=CC(=[N+](CC)Cc3cccc(S(=O)(=O)[O-])c3)C=C2)c2ccccc2S(=O)(=O)[O-])cc1.[Na+].[Na+] [Blue No.1]
		x	∘	CC1(C)[C@@H](O[C@H]2O[C@H](C(=O)[O-])[C@@H](O)[C@H](O)[C@H]2O[C@@H]2O[C@H](C(=O)[O-])[C@@H](O)[C@H](O)[C@H]2O)CC[C@]2(C)[C@H]3C(=O)C=C4[C@@H]5C[C@@](C)(C(=O)O)CC[C@]5(C)CC[C@@]4(C)[C@]3(C)CC[C@@H]12.[K+].[K+] [Dipotassium Glycyrrhizinate]
x	∘			Cc1ccc(Nc2ccc(O)c3c2C(=O)c2ccccc2C3=O)c(S(=O)(=O)[O-])c1.[Na+] [Purple No.401]
